In PubChem BioAssay AID2060623 (Molecular Pharmacology Branch, DTP, NCI, 2025):

System: 227483-062-R1-J1-PDC complex spheroids with HUVEC/MSC, viability
Assay: Anticancer human tumor 227483-062-R1-J1-PDC patient-derived pancreatic carcinoma cell line growth inhibition [CLK]
Details: for IC50: curve of first compound; for viability, T/C: stronger effect = lower value
Outline: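 Patient-derived tumor cells grown as complex spheroids with HUVEC endothelial cells and mesenchymal stem cells, treated with drug combinations. Concentrations descend in half-log steps from near clinical Cmax, or from 10 microM if Cmax unknown.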

[1] = second compound 0.0316 µM, first compound 0.00316 µM
[2] = second compound 0.0316 µM, first compound 0.01 µM
[3] = second compound 0.0316 µM, first compound 0.0316 µM
[4] = second compound 0.0316 µM, first compound 0.1 µM
[5] = second compound 0.1 µM, first compound 0.00316 µM
[6] = second compound 0.1 µM, first compound 0.01 µM
[7] = second compound 0.1 µM, first compound 0.0316 µM
[8] = second compound 0.1 µM, first compound 0.1 µM
[9] = second compound 0.316 µM, first compound 0.00316 µM
[10] = second compound 0.316 µM, first compound 0.01 µM
[11] = second compound 0.316 µM, first compound 0.0316 µM
[12] = second compound 0.316 µM, first compound 0.1 µM
[13] = second compound 1 µM, first compound 0.00316 µM
[14] = second compound 1 µM, first compound 0.01 µM
[15] = second compound 1 µM, first compound 0.0316 µM
[16] = second compound 1 µM, first compound 0.1 µM
[17] = second compound 3.16 µM, first compound 0.00316 µM
[18] = second compound 3.16 µM, first compound 0.01 µM
[19] = second compound 3.16 µM, first compound 0.0316 µM
[20] = second compound 3.16 µM, first compound 0.1 µM
[21] = second compound 10 µM, first compound 0.00316 µM
[22] = second compound 10 µM, first compound 0.01 µM
[23] = second compound 10 µM, first compound 0.0316 µM
[24] = second compound 10 µM, first compound 0.1 µM
[25] = second compound 0.0316 µM, first compound 0.316 µM
[26] = second compound 0.0316 µM, first compound 1 µM
[27] = second compound 0.1 µM, first compound 0.316 µM
[28] = second compound 0.1 µM, first compound 1 µM
[29] = second compound 0.316 µM, first compound 0.316 µM
[30] = second compound 0.316 µM, first compound 1 µM
[31] = second compound 1 µM, first compound 0.316 µM
[32] = second compound 1 µM, first compound 1 µM
[33] = second compound 3.16 µM, first compound 0.316 µM
[34] = second compound 3.16 µM, first compound 1 µM
[35] = second compound 10 µM, first compound 0.316 µM
[36] = second compound 10 µM, first compound 1 µM
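Note: spheroids exposed to compounds for seven days before readout.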
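Throughout, for viability, T/C: percent of DMSO vehicle control luminescence as 100% viability.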

SMILES: Cn1ncnc1[C@H]1c2n[nH]c(=O)c3cc(F)cc(c23)N[C@@H]1c1ccc(F)cc1 + CNC(=O)c1ccc(Nc2nc(OC3CCCC3)c3c(-c4ccc5nc(C)oc5c4)c[nH]c3n2)c(OC)c1
- IC50 (second compound 0.0316 µM): > 100 nM
- IC50 (second compound 0.1 µM): > 100 nM
- IC50 (second compound 0.316 µM): > 100 nM
- IC50 (second compound 1 µM): > 100 nM
- IC50 (second compound 3.16 µM): < 0.316 nM
- IC50 (second compound 10 µM): < 0.316 nM
- viability, T/C (second compound 0.0316 µM, first compound 0.000316 µM): 87.5%
- viability, T/C (second compound 0.0316 µM, first compound 0.001 µM): 111%
- viability, T/C [1]: 118%
- viability, T/C [2]: 100%
- viability, T/C [3]: 89.1%
- viability, T/C [4]: 97.1%
- viability, T/C (second compound 0.1 µM, first compound 0.000316 µM): 111%
- viability, T/C (second compound 0.1 µM, first compound 0.001 µM): 120%
- viability, T/C [5]: 106%
- viability, T/C [6]: 97.4%
- viability, T/C [7]: 97%
- viability, T/C [8]: 109%
- viability, T/C (second compound 0.316 µM, first compound 0.000316 µM): 105%
- viability, T/C (second compound 0.316 µM, first compound 0.001 µM): 84.2%
- viability, T/C [9]: 78.5%
- viability, T/C [10]: 94.4%
- viability, T/C [11]: 94.4%
- viability, T/C [12]: 70.4%
- viability, T/C (second compound 1 µM, first compound 0.000316 µM): 69%
- viability, T/C (second compound 1 µM, first compound 0.001 µM): 59.7%
- viability, T/C [13]: 59.8%
- viability, T/C [14]: 67.4%
- viability, T/C [15]: 71.9%
- viability, T/C [16]: 58%
- viability, T/C (second compound 3.16 µM, first compound 0.000316 µM): 40.7%
- viability, T/C (second compound 3.16 µM, first compound 0.001 µM): 44.9%
- viability, T/C [17]: 51.2%
- viability, T/C [18]: 48.5%
- viability, T/C [19]: 49.4%
- viability, T/C [20]: 41.3%
- viability, T/C (second compound 10 µM, first compound 0.000316 µM): 40.5%
- viability, T/C (second compound 10 µM, first compound 0.001 µM): 39.3%
- viability, T/C [21]: 36.5%
- viability, T/C [22]: 34.2%
- viability, T/C [23]: 41%
- viability, T/C [24]: 29.3%

SMILES: COc1c(OCCCN2CCOCC2)ccc2c3n(c(=NC(=O)c4cnc(N)nc4)nc12)CCN3 + CN1CCN(c2cc(C(=O)Nc3cc4cc(-c5cnn(C)c5)ccc4cn3)ccn2)CC1
- IC50 (second compound 0.0316 µM): 194 nM
- IC50 (second compound 0.1 µM): 25 nM
- IC50 (second compound 0.316 µM): < 3.16 nM
- IC50 (second compound 1 µM): < 3.16 nM
- IC50 (second compound 3.16 µM): < 3.16 nM
- IC50 (second compound 10 µM): < 3.16 nM
- viability, T/C [1]: 114%
- viability, T/C [2]: 96.6%
- viability, T/C [3]: 74.2%
- viability, T/C [4]: 60.9%
- viability, T/C [25]: 43.3%
- viability, T/C [26]: 27.8%
- viability, T/C [5]: 60.1%
- viability, T/C [6]: 65%
- viability, T/C [7]: 41%
- viability, T/C [8]: 38.8%
- viability, T/C [27]: 23.2%
- viability, T/C [28]: 16.7%
- viability, T/C [9]: 6.51%
- viability, T/C [10]: 6.64%
- viability, T/C [11]: 5.96%
- viability, T/C [12]: 6.61%
- viability, T/C [29]: 5.11%
- viability, T/C [30]: 4.05%
- viability, T/C [13]: 3.87%
- viability, T/C [14]: 1.44%
- viability, T/C [15]: 1.35%
- viability, T/C [16]: 1.23%
- viability, T/C [31]: 1.21%
- viability, T/C [32]: 1.6%
- viability, T/C [17]: 2.64%
- viability, T/C [18]: 2.53%
- viability, T/C [19]: 2.97%
- viability, T/C [20]: 1.79%
- viability, T/C [33]: 1.84%
- viability, T/C [34]: 1.94%
- viability, T/C [21]: 3.49%
- viability, T/C [22]: 3.33%
- viability, T/C [23]: 1.42%
- viability, T/C [24]: 1.13%
- viability, T/C [35]: 3.58%
- viability, T/C [36]: 1.55%

SMILES: CC1COCCN1c1cc(C2(S(C)(=N)=O)CC2)nc(-c2ccnc3[nH]ccc23)n1 (stereo unspecified) + CN1CCN(c2cc(C(=O)Nc3cc4cc(-c5cnn(C)c5)ccc4cn3)ccn2)CC1
- IC50 (second compound 0.0316 µM): 8890 nM
- IC50 (second compound 0.1 µM): 1120 nM
- IC50 (second compound 0.316 µM): < 31.6 nM
- IC50 (second compound 1 µM): < 31.6 nM
- IC50 (second compound 3.16 µM): < 31.6 nM
- IC50 (second compound 10 µM): < 31.6 nM
- viability, T/C [3]: 82.8%
- viability, T/C [4]: 98.1%
- viability, T/C [25]: 93.7%
- viability, T/C [26]: 84.6%
- viability, T/C (second compound 0.0316 µM, first compound 3.16 µM): 85.3%
- viability, T/C (second compound 0.0316 µM, first compound 10 µM): 45.8%
- viability, T/C [7]: 60.5%
- viability, T/C [8]: 74.2%
- viability, T/C [27]: 60.2%
- viability, T/C [28]: 51.9%
- viability, T/C (second compound 0.1 µM, first compound 3.16 µM): 33.3%
- viability, T/C (second compound 0.1 µM, first compound 10 µM): 21.7%
- viability, T/C [11]: 6.08%
- viability, T/C [12]: 4.49%
- viability, T/C [29]: 4.56%
- viability, T/C [30]: 4.4%
- viability, T/C (second compound 0.316 µM, first compound 3.16 µM): 6.8%
- viability, T/C (second compound 0.316 µM, first compound 10 µM): 2.88%
- viability, T/C [15]: 1.88%
- viability, T/C [16]: 2.55%
- viability, T/C [31]: 1.66%
- viability, T/C [32]: 3.91%
- viability, T/C (second compound 1 µM, first compound 3.16 µM): 2.05%
- viability, T/C (second compound 1 µM, first compound 10 µM): 1.59%
- viability, T/C [19]: 4.44%
- viability, T/C [20]: 3.71%
- viability, T/C [33]: 4.61%
- viability, T/C [34]: 3.67%
- viability, T/C (second compound 3.16 µM, first compound 3.16 µM): 2.93%
- viability, T/C (second compound 3.16 µM, first compound 10 µM): 2.93%
- viability, T/C [23]: 3.62%
- viability, T/C [24]: 2.17%
- viability, T/C [35]: 2.15%
- viability, T/C [36]: 1.98%
- viability, T/C (second compound 10 µM, first compound 3.16 µM): 2.16%
- viability, T/C (second compound 10 µM, first compound 10 µM): 3.07%
